Marks after values point to notes of the source that are not given here.
What was measured:
Assay type in all cases: cell-based, human
[1] = test system: elastin (Eln) mRNA; assay: Screening of active principles by qualitative RT-PCR: elastin mRNA expression in fibroblasts; details: actives at 1% (v/v), 24 hours, fibroblasts of the abdomen of mature age adult (donor), mRNA vs actin and negative control
Description: (§1) The active principles were tested at 1% (v/v) on fibroblasts of normal human skin (originating from the foreskin of the infant or originating from the adult). The culture was carried out, e.g. in a monolayer on 24-well culture plates, in a defined medium without serum (Fibroblast Basal Medium). The cells were sown, e.g. at 40,000 per cm^2. At the confluence, the cells are placed in contact with the actives advantageously for 24 hours. In parallel, a non-treated control (medium alone) and three positive controls (TGF-β at 1 ng/ml, IL-1α at […] and Phytokine® (Coletica, Lyons, France) at 2% (v/v)) are advantageously carried out, e.g. on the same culture plate.
(§2) The TGF-β at 1 ng/ml and the IL-1α at 50 pg/ml were tested beforehand and the stimulation of the synthesis of elastin mRNA induced by these two cytokines at these concentrations was verified by an analysis of the mRNAs, e.g. by quantitative RT-PCR (×10 for TGF-β and x6 for IL-1 alpha). After the time of placing the actives in contact with the cells, e.g. 24 hours, the media are removed and the cells are preserved e.g. by dry freezing at −80° C. after a rinsing in phosphate buffer pH 7.4. The total RNAs are extracted e.g. with the aid of an extraction kit of 96 wells on silica columns and were determined on a 96-well spectrophotometer at 260 nm (purity indicator: protein determination at 280 nm). The RNAs are diluted e.g. to 5 ng/μl. The qualitative RT-PCR in 1 step is carried out e.g. on 50 ng of initial RNA on a 96-well plate, on the genes of actin, elastin, of LOX and of LOXL. The specific primers of each gene are used e.g. at 0.5 μM: […]
(§3) The amplification parameters were advantageously the following 48° C., 30 min; 94° C., 2 min; (94° C., 30 seconds; 60° C., 30 seconds; 68° C., 30 seconds) 28 cycles for actin, 30 cycles for LOXL, 32 cycles for LOX, or 34 cycles for elastin; 68° C., 10 min; 14° C., infinity. […] The photographs of the gels were analyzed by image analysis and quantification of the intensity of the bands (Phoretix1D, France). […]

[2] = test system: LOXL mRNA; assay: Screening of active principles by qualitative RT-PCR: LOXL mRNA expression in fibroblasts; details: actives at 1% (v/v), 24 hours, fibroblasts of the abdomen of mature age adult (donor), mRNA vs actin and negative control
Description: as §1, §2, §3

[3] = test system: LOX mRNA; assay: Screening of active principles by qualitative RT-PCR: LOX mRNA expression in fibroblasts; details: actives at 1% (v/v), 24 hours, fibroblasts of the abdomen of mature age adult (donor), mRNA vs actin and negative control
Description: as §1, §2, §3

[4] = test system: LOXL mRNA; assay: Real time RT-PCR effectiveness study: LOXL mRNA in adult fibroblasts; details: 24 hours, adult abdomen fibroblasts (donor)
Description: (§4) […] The culture was carried out e.g. in monolayer in 24-well plates, in a defined medium without serum (Fibroblast Basal Medium). The cells are sown e.g. at 40,000 per cm^2. After the time of placing the actives in contact with the cells (24 hours), the media were removed and the cells were preserved e.g. by dry freezing at −80° C. after a rinsing with phosphate buffer at pH 7.4. At the end of experimentation, the content of mRNA of elastin, of LOXL and of actin is evaluated by an mRNA analysis technique, e.g. by real time RT-PCR. For this, the couples of primers enabling the amplification of specific fragments of these genes are those described above (Example 10).
(§5) After extraction e.g. with the aid of an extraction kit in 96-wells on silica columns and determination on a 96-well spectrophotometer at 260 nm, the RNAs are diluted e.g. to 5 ng/μl. The RT-PCR reactions ([…]) were carried out by quantitative real time RT-PCR with the aid of the “Opticon” system (MJ Research). Advantageously, the reaction mixture (50 μl) introduced into the wells was the following, for each sample: • 10 μl of RNA at a concentration of 5 ng/μl, • The specific primers of the various labels sought after, • Reaction mixture (Qiagen−25 μl 2×QuantiTect SYBR Green RT-PCR master mix containing 5 mM MgCl2+0.5 μl QuantITect RT mix), the label SYBR Green I inserting in the DNA double strands during the elongation step. The RT-PCR Conditions were Advantageously the Following: Reverse Transcription: 30 minutes at 50° C., then 15 minutes at 95° C., PCR reactions: [15 seconds at 94° C., 30 seconds at 60° C. and 30 seconds at 72° C.], 50 cycles.
(§6) The absence of contamination and the purity of the amplified products were verified e.g. via the fusion curves of the amplified PCR products. The products presenting a double peak or an abnormal fusion temperature were eliminated.
(§7) The incorporation of fluorescence in the amplified DNA was evaluated continuously during the PCR cycles. This system enabled obtaining curves of fluorescence measurement as a function of the number of PCR cycles and thus enabled evaluating a relative amount of amplified DNA.
(§8) In order to take account of the cell population present, all the results were compared to the <> signal, which was used as housekeeping gene. According to the experimentation, the threshold of measurement of the C(T) (=Cycle Threshold) was fixed for T between 0.05 and 0.01, and then an arbitrary measurement unit is calculated for each gene according to the formula:
(§9) Sgene<=10^7×(1/2)^C(T)gene<>
(§10) C (T)gene <> signifying the number of cycles necessary to attain the cycle threshold of 0.01-0.05 of the gene <>.
(§11) The values of the genes of interest were compared to the <> signal by calculation of the ratio: […]

[5] = test system: LOX mRNA; assay: Real time RT-PCR effectiveness study: LOX mRNA in adult fibroblasts; details: 24 hours, adult abdomen fibroblasts (donor)
[6] = test system: elastin mRNA; assay: Real time RT-PCR effectiveness study: elastin mRNA in adult fibroblasts; details: 24 hours, adult abdomen fibroblasts (donor)
Description: as §4, §5, §6, §7, §8, §9, §10, §11

[7] = test system: elastin mRNA; assay: Positive controls: stimulation of elastin mRNA synthesis by quantitative RT-PCR; details: 1 ng/ml, fold (×)
Description: as §1
as §2, with “nm).” for “nm). The RNAs are diluted e.g. to 5 ng/μl. The qualitative RT-PCR in 1 step is carried out e.g. on 50 ng of initial RNA on a 96-well plate, on the genes of actin, elastin, of LOX and of LOXL. The specific primers of each gene are used e.g. at 0.5 μM:”

## CCCC(=O)OC [methyl butyrate]
[1]
  Eln Control multiplied by:: 1.43
[2]
  LOXL Control multiplied by:: 3.24
[3]
  LOX Control multiplied by:: 5.08
[4]; active at 0.01%
  LOXL Control multiplied by:: 0.89
[4]; active at 0.1%
  LOXL Control multiplied by:: 1.56
[4]; active at 1%
  LOXL Control multiplied by:: 2.10*
[4]; active at 5%
  LOXL Control multiplied by:: 0.91
[5]; active at 0.01%
  LOX Control multiplied by:: 1.04
[5]; active at 0.1%
  LOX Control multiplied by:: 1.76*
[5]; active at 1%
  LOX Control multiplied by:: 2.17*
[5]; active at 5%
  LOX Control multiplied by:: 0.91
[6]; active at 0.01%
  El Control multiplied by:: 0.92
[6]; active at 0.1%
  El Control multiplied by:: 0.96
[6]; active at 1%
  El Control multiplied by:: 1.25
[6]; active at 5%
  El Control multiplied by:: 1.70*

## TGF-β
[7]
  stimulation of the synthesis of elastin mRNA: 10

## ethyl decadienoate
[1]
  Eln Control multiplied by:: 2.04
[2]
  LOXL Control multiplied by:: 2.32
[3]
  LOX Control multiplied by:: 3.64

## ethyl hexenoate
[1]
  Eln Control multiplied by:: 1.5
[2]
  LOXL Control multiplied by:: 2.33
[3]
  LOX Control multiplied by:: 3.09
